From PubChem BioAssay AID1745859
pIC50: −log10 of the molar value.

Target: Equilibrative nucleoside transporter 1 (Homo sapiens) (UniProt Q99808)
Assay: PubChem AID 1745859
Details: U2OS JumpIn-ENT1 cells, TRACT impedance, adenosine response

Equilibrative nucleoside transporter 1 (Homo sapiens), sequence (Q99808 whole entry, looked up): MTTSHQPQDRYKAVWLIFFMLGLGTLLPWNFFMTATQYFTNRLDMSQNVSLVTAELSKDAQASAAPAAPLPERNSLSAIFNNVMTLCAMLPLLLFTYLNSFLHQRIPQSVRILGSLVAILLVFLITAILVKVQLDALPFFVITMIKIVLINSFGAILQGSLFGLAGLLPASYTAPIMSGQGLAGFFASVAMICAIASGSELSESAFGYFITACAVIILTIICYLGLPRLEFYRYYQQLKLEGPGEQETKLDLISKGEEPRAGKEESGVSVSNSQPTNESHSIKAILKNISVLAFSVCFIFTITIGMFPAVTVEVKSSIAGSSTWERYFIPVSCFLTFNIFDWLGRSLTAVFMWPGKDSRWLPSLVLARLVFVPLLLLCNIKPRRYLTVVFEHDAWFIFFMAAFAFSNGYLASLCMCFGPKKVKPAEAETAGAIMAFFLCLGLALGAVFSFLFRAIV

`NC(=O)C1CN(CCCCC(c2ccc(F)cc2)c2ccc(F)cc2)CCN1CC(=O)Nc1c(Cl)cc(N)cc1Cl` (stereo unspecified) showed a pIC50 of 8.27.
